Measured values from US20260207758A1, “NA[…]-BASED CONJUGATE FOR […] INTO B CELL AND T CELL AND USES THEREOF” (priority 2022, published 2026).

What was measured:
Type in all cases: cell-based
[1] = tested on: B cells (primary CD19+ B cells); assay: Binding of Cy5.5-labeled targeting peptide, confocal microscopy; conditions: 100 μM Cy5.5-labeled peptide, 1 hour
Protocol: (§1) A B cell/T cell targeting peptide (BTBP, SEQ ID NO: 17) was labeled with Cy5.5, and B cells (primary CD19+ B cells, PCS-800-018, ATCC) and T cells (primary CD8+ cytotoxic T cells, PCS-800-017, ATCC) were treated with 100 μM of the peptide for 1 hour. Then, the cells were fixed with 4% neutral formalin solution and measured using a confocal scanning microscope (LSM980 with Airyscan2, Carl Zeiss). […] Therefore, it was confirmed that BTBP effectively targeted both the B cells and the T cells.

[2] = tested on: T cells (primary CD8+ cytotoxic T cells); assay: as above; conditions: 100 μM Cy5.5-labeled peptide, 1 hour
Protocol: as §1

[3] = tested on: B cells (primary CD19+ B cells); assay: Binding of Cy5.5-labeled targeting peptide, flow cytometry; conditions: Cy5.5-labeled peptide
Protocol: as §1
(§2) In addition, the cells were washed three times with DPBS containing 5% FBS, and cells bound with Cy5.5-labeled BTBP were analyzed using flow cytometry (FIG. 7). As a result, it could be confirmed that the peptide of SEQ ID NO: 17 bound to B cells and T cells.

[4] = tested on: T cells (primary CD8+ cytotoxic T cells); assay: as above; conditions: Cy5.5-labeled peptide
Protocol: as §1, §2

HTHGAARVPDHR [BTBP]
fluorescence intensity in cell membranes [1]: significantly increased
fluorescence intensity in cell membranes [2]: significantly increased
binding to cells by flow cytometry [3]: bound
binding to cells by flow cytometry [4]: bound
